PubChem BioAssay (NCI)
Where “and” joins values, the source holds several entries; their conditions need not be identical. Equal entries are not always repeated.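 These data come from cells grown in 96-well plates and exposed to compound for 48 hours at five concentrations. Here, GI50 denotes the concentration required for 50% inhibition of growth. Definition used: TGI = concentration required for complete inhibition of growth.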

Tests used:
Assay in all cases: growth of human tumour cells (NCI), 48 h
A498 renal = tested on: A498 renal
CAKI-1 renal = tested on: CAKI-1 renal
COLO 205 colon = tested on: COLO 205 colon
DU-145 prostate = tested on: DU-145 prostate
IGROV1 ovarian = tested on: IGROV1 ovarian
K-562 leukemia = tested on: K-562 leukemia
PC-3 prostate = tested on: PC-3 prostate
SF-539 CNS = tested on: SF-539 CNS
T-47D breast = tested on: T-47D breast
OVCAR-5 ovarian = tested on: OVCAR-5 ovarian

Row | Compound | TGI (A498 renal) [µM] | TGI (CAKI-1 renal) | TGI (COLO 205 colon) [µM] | TGI (DU-145 prostate) [µM] | TGI (IGROV1 ovarian) [µM] | TGI (K-562 leukemia) [µM] | TGI (PC-3 prostate) [µM] | TGI (SF-539 CNS) [µM] | TGI (T-47D breast) [µM] | TGI (OVCAR-5 ovarian) [µM] | GI50 (A498 renal) [µM] | GI50 (CAKI-1 renal) | GI50 (COLO 205 colon) [µM] | GI50 (DU-145 prostate) | GI50 (IGROV1 ovarian) | GI50 (K-562 leukemia) | GI50 (OVCAR-5 ovarian) [µM] | GI50 (PC-3 prostate) [µM] | GI50 (SF-539 CNS) [µM] | GI50 (T-47D breast)
1 | CN1CCc2ccccc2C1Cc1ccccc1NC(=O)c1sc2ccccc2c1Cl (configuration not stated) | > 100 | > 100 µM | > 100 | > 100 | > 100 | > 100 | > 100 | > 100 | > 100 | – | – | – | – | – | – | – | – | – | – | –
2 | CCNCC(=O)Nc1ccc2c(c1)C(=O)c1ccc(NC(=O)CNCC)cc1C2=O | 6.46 | 29.6 µM | 3.69 | 11.7 | 19.5 | 4.91 | > 100 | 16.2 | 17.1 | 10.7 | – | – | – | – | – | – | – | – | – | –
3 | COc1cc2c(/C=C3\C(=O)N(C)c4ccccc43)c[nH]c2cc1C | 48.9 | 51.3 µM | > 100 | > 66.3 | > 69.6 | > 100 | > 100 | > 31.2 | > 100 | > 63.9 | 4.96 | 2.01 µM | 1.58 | 6.77 µM | 7.87 µM | 1.68 µM | 7.94 | 2.56 | 4.2 | > 39.3 µM
4 | O=S(O)O.O=S(O)O.[Co].[NH2-].[NH2-].[NH2-].[NH2-] | > 100 | > 100 µM | > 100 | > 100 | > 100 | > 100 | > 100 | > 100 | > 100 | > 100 | > 100 | > 100 µM | > 100 | > 100 µM | > 100 µM | > 100 µM | > 100 | > 100 | > 100 | > 100 µM
5 | NC(=O)c1cn(C2CC(O)C(CO)O2)c2ncnc(N)c12 (configuration not stated) | 7.93 | 39.4 µM | 24 | 10.4 | 5.16 | > 100 | > 35.4 | 15.1 | 1.82 | > 71.6 | 1.97 | 3.2 µM | 5.01 | 1.41 µM | 0.749 µM | 4.21 µM | 9.81 | 1.57 | 3.34 | 0.0549 µM
6 | CCCCCCCCCCCCCCCCn1cc[n+](C)c1 | 0.76 | 2.33 µM | – | 1.94 | 0.517 | 1.13 | 0.58 | 2.38 | – | 1.64 | 0.109 | 0.385 µM | 0.27 | 0.651 µM | 0.201 µM | 0.131 µM | 0.329 | 0.183 | 1.16 | 0.398 µM
7 | O=c1[nH]c(-c2ccc(Cl)c(Cl)c2)cn1-c1ccc(Cl)cc1 | 47.6 | 49 µM | > 100 | > 100 | 79.5 | 46.9 | > 100 | 54.2 | 84.5 | > 100 | 22.2 | 25.4 µM | 40.3 | 29.1 µM | 22.6 µM | 21.5 µM | 30.2 | 66.9 | 20.1 | 25.5 µM
8 | O=C1OC2(c3ccc(O)cc3Oc3cc(O)ccc32)c2cccc3cccc1c23 | 70.1 | > 100 µM | 33.2 | 36.9 | 57.4 | > 100 | > 100 | 43.4 | 99.6 | 40.7 | 24.8 | 24.6 µM | 17.2 | 18.9 µM | 19.1 µM | 33.2 µM | 17.2 | 36.2 | 18.7 | 28.6 µM
9 | CC(C)[C@@]12C[C@@H](OC(=O)C3CO3)[C@@](C)(O1)[C@@H]1CC[C@@H](C)[C@H]1[C@@H]2OC(=O)/C=C/c1ccccc1 (some centres not stated) | 4.91 | 54.8 µM | > 100 | 72.9 | 87.2 | > 100 | 61 | 31.4 | > 100 | 47.9 | 2.05 | 13.1 µM | 27.8 | 26.4 µM | 24.3 µM | 33.2 µM | 19.3 | 17.4 | 16.4 | 18.8 µM
10 | OCc1ccc(-c2nc(-c3ccc4c(c3)OCO4)c(-c3ccccn3)[nH]2)cc1 | > 25 | > 25 µM | > 25 | > 25 | > 25 | > 25 | > 25 | > 25 | > 25 | > 25 | > 25 | 11.4 µM | > 25 | > 25 µM | > 25 µM | > 25 µM | > 22.8 | > 25 | > 25 | > 23.2 µM
11 | CCOC(=O)Cc1csc(NC(=O)C(OC(=O)c2ccc(Cl)cc2)c2ccccc2)n1 (configuration not stated) | > 100 | > 100 µM | > 100 | > 100 | > 100 | > 100 | > 100 | 54.8 | > 100 | > 100 | > 100 | 61.9 µM | 38.3 | 72.7 µM | 47 µM | 27.1 µM | 38.5 | 35.1 | 25.3 | 63.1 µM
12 | Cc1cc(-c2nc3sc(C)cn3c2/C=N/N=C(N)N)c(C)s1 | – | 32.4 µM | 19 | 23 | > 100 | > 100 | 15.5 | – | 13.8 | 28.1 | – | 17.4 µM | 4.76 | 6.11 µM | 28.8 µM | > 100 µM | 13.2 | 3.65 | – | 3.56 µM
13 | O=Cc1ccc(-c2ccc(-c3nc4ccccc4s3)cc2)o1 | 18.8 | > 100 µM | > 100 | > 100 | > 100 | > 100 | > 100 | – | > 100 | > 100 | 3.21 | > 100 µM | > 100 | 35 µM | > 100 µM | > 100 µM | > 100 | 45.2 | – | > 100 µM
14 | COc1cccc2c1C(=O)c1c(O)c3c(c(O)c1C2=O)C[C@](O)(C(=O)CO)C[C@H]3O[C@@H]1C[C@@H](NC(=O)CCCN(C)C2(c3ccc(F)cc3)CC3CCC2C3)[C@H](O)[C@@H](C)O1 (some centres not stated) | 12.5 | 14.5 µM | 1.44 | 1.89 | 15.8 | 2.58 | 3.11 | 1.56 | – | 1.67 | 5.31 | 7.16 µM | 0.712 | 0.893 µM | 5.72 µM | 1.02 µM | 0.863 | 1.18 | 0.846 | –
15 | COc1cc2c3c(n(CCCN=[N+]=[N-])c(=O)c2cc1OC)-c1ccccc1C3=O | – | 7.77 µM | – | > 100 | – | > 100 | > 100 | 22.8 | > 100 | – | – | 2.13 µM | – | 28 µM | – | 3.48 µM | – | > 100 | 4.73 | > 100 µM
16 | COc1cc2c3c(n(CCCN=[N+]=[N-])c(=O)c2cc1OC)-c1ccc(F)cc1C3=O | > 100 | > 100 µM | > 100 | > 100 | – | > 100 | > 100 | 12.4 | > 100 | > 100 | 39.6 | 4.56 µM | 23.8 | 4.19 µM | – | 19.3 µM | > 100 | 6.63 | 3.23 | 3.92 µM
17 | CCOc1ccccc1/C=N\N=C(N/N=C/c1ccccc1OCC)N/N=C/c1ccccc1OCC | 8.45 | > 100 µM | 2.98 | > 100 | > 100 | > 100 | > 100 | > 100 | – | > 100 | 2.17 | 1.4 µM | 1.43 | 2.45 µM | 3.04 µM | 3.76 µM | 2.52 | 2.06 | 2.41 | –
18 | COc1ccc(-c2cnc(-c3ccc(OC)cc3)n2-c2cc(OC)c(OC)c(OC)c2)cc1 | 39.5 | 80.2 µM | > 100 | 78.2 | > 100 | – | > 100 | 54.9 | > 100 | > 100 | 12.1 | 23.8 µM | 56 | 30.7 µM | 28.3 µM | – | 45.9 | 29.4 | 23.9 | 39.4 µM
19 | CCCCCCOC(=O)CC1=C(C)/C(=C/c2[nH]c(-c3ccc[nH]3)cc2OC)N=C1C | 1.33 | 1.12 µM | 1.09 | 1.86 | 1.23 | – | 1.78 | 1.27 | 0.545 | 2 | 0.321 | 0.0706 µM | 0.087 | 0.0728 µM | 0.178 µM | – | 0.371 | 0.0487 | 0.0635 | 0.0367 µM
20 | Cc1[nH]c2ccccc2c1CO | 56.2 | 42.2 µM | 27.3 | 18.1 | – | 61.4 | 43.7 | 39.9 | > 100 | 96.9 | 17.2 | 14.9 µM | 14.2 | 0.0457 µM | – | 18.6 µM | 24.4 | 17 | 18.8 | 29.3 µM
21 | COc1ccc(O)c(/C=N\Nc2ccccc2)c1 | 91.6 | – | 26.2 | > 100 | – | > 100 | > 100 | 68.4 | > 100 | > 100 | – | – | – | – | – | – | – | – | – | –
22 | O=CN/C=C/c1ccccc1 | > 100 | > 100 µM | > 100 | > 100 | > 100 | > 31.6 | > 100 | > 100 | – | > 100 | – | – | – | – | – | – | – | – | – | –
23 | COc1ccc(Nc2ncc(I)c(NCCCNC(=O)C3CCC3)n2)cc1 | 21.7 | 16 µM | 12.2 | > 100 | 16.6 | > 100 | – | 18.4 | 79 | 68.5 | 7.25 | 1.32 µM | 3.07 | 9.21 µM | 2.39 µM | 8.99 µM | 8.28 | – | 3.47 | 28.4 µM
24 | CCCCN(CCCC)P(=O)(Oc1ccccc1)Oc1ccccc1 | 24.1 | 11.3 µM | 26.7 | 24 | – | > 100 | 17.6 | 28.6 | 33.1 | 28.3 | 11.6 | 2.42 µM | 11.3 | 11.1 µM | – | 7.01 µM | 13.3 | 3.79 | 14 | 7.46 µM
25 | CC(=O)OCC1OC(SC2=N/C(=C\c3ccc(Br)s3)C(=O)N2c2ccccc2)C(OC(C)=O)C(OC(C)=O)C1OC(C)=O (configuration not stated) | > 100 | 32.5 µM and > 100 µM | > 100 | > 100 | > 100 | > 100 | > 100 | – | > 100 | > 100 | – | 13.4 µM and 85.7 µM | – | > 100 µM and 42.8 µM | 87.4 µM and 41.7 µM | > 100 µM and 18.9 µM | – | – | – | 96.5 µM and 27.8 µM
26 | COc1ccc(C(=O)/C=C/c2cc(-c3ccc(OC)c(OC)c3)n[nH]2)cc1OC | 3.2 | – | 3.1 | 4.8 | 53.8 | > 100 | 35.7 | 2.54 | 6.65 | 5.24 | 1.27 | – | 1.55 | 1.64 µM | 3.13 µM | 0.619 µM | 1.76 | 1.98 | 0.525 | 1.36 µM
27 | N#Cc1c(N)nc2c(c1-c1ccc(Cl)cc1)COc1ccc(F)cc1-2 | 52.3 | 66.3 µM | – | > 100 | > 100 | 34.1 | 65.7 | 40.1 | > 100 | > 100 | 22.3 | 25.2 µM | – | 29.9 µM | 14.8 µM | 15.5 µM | 27.5 | 29.7 | 20.1 | 43.7 µM
28 | COC(=O)c1c2c(c(C)[n+]([O-])c1C)C(=O)C(NCc1ccccc1)=CC2=O | 16.1 | 14.3 µM | 2.67 | 11.2 | 4.42 | 16.3 | – | 5.3 | 5.35 | 6.22 | 4.72 | 2.84 µM | 0.977 | 3.5 µM | 1.71 µM | 2.94 µM | 2.58 | – | 2.29 | 1.88 µM
